The values that follow come from ChEMBL document CHEMBL1133070, “Novel 2,3,4,5-tetrahydro-1H-3-benzazepines with high affinity and selectivity for the dopamine D3 receptor” (Bioorg Med Chem Lett, 2000).

One assay has as its target D(2) dopamine receptor (Homo sapiens, UniProt P14416). The assay is described as follows: biochemical. Type of assay: cell-based, CHO.
Another assay has as its target D(3) dopamine receptor (Homo sapiens, UniProt P35462). The assay is described as follows: biochemical. Type of assay: cell-based, CHO.

D(2) dopamine receptor, sequence (P14416 whole entry): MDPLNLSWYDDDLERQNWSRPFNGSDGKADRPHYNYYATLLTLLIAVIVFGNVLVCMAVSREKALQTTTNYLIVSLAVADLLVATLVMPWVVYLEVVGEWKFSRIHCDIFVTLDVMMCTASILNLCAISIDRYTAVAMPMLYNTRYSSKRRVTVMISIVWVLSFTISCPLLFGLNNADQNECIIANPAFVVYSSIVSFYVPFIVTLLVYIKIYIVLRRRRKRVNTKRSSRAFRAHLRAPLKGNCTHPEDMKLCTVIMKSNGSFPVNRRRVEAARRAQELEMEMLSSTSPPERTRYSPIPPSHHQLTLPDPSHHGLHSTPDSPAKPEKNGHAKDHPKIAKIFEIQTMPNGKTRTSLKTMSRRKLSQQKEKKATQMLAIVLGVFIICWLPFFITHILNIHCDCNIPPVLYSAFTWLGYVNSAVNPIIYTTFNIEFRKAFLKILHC
D(3) dopamine receptor, sequence (P35462 whole entry): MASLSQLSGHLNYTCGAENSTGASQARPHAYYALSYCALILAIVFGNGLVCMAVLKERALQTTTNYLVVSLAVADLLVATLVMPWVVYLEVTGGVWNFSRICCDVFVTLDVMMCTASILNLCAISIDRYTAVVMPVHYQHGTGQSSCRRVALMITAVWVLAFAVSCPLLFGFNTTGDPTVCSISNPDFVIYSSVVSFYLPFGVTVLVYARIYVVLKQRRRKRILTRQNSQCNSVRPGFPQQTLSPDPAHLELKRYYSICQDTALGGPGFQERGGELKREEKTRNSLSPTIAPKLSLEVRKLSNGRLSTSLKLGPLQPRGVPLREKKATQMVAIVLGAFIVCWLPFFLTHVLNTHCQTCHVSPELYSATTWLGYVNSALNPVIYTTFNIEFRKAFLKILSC
Description for D(2) dopamine receptor: Binding affinity towards human Dopamine receptor D2 by displacement of [125I]iodosulpiride expressed in CHO cells
Description for D(3) dopamine receptor: Binding affinity towards human Dopamine receptor D3 by displacement of [125I]iodosulpiride expressed in CHO cells

On to `N#Cc1ccc2c(c1)CCN(CC[C@H]1CC[C@H](NC(=O)c3cccc4ncccc34)CC1)CC2`, for which the Ki was 2000 nM at D(2) dopamine receptor and 12.6 nM on D(3) dopamine receptor.
For `N#Cc1ccc2c(c1)CCN(CC[C@H]1CC[C@H](NC(=O)c3ccc4ccccc4c3)CC1)CC2`, the Ki was 3160 nM on D(2) dopamine receptor and 20 nM at D(3) dopamine receptor.
The matching figures for `COc1cccc(/C=C/C(=O)N[C@H]2CC[C@H](CCN3CCc4ccc(C#N)cc4CC3)CC2)c1`: 631 nM and 3.16 nM.
As to `N#Cc1ccc2c(c1)CCN(CC[C@H]1CC[C@H](NC(=O)c3ccnc4ccccc34)CC1)CC2`, the inhibitory constant (Ki) at D(2) dopamine receptor is 1260 nM; at D(3) dopamine receptor it was 25.1 nM.
As to `CC(=O)Nc1cccc(/C=C/C(=O)N[C@H]2CC[C@H](CCN3CCc4ccc(C#N)cc4CC3)CC2)c1F`, the values for the Ki at D(2) dopamine receptor and at D(3) dopamine receptor were 501 nM and 3.98 nM, respectively.
The matching figures for `CC(=O)c1cccc(/C=C/C(=O)N[C@H]2CC[C@H](CCN3CCc4ccc(C#N)cc4CC3)CC2)c1`: 200 nM and 3.98 nM.
The matching figures for `N#Cc1ccc2c(c1)CCN(CC[C@H]1CC[C@H](NC(=O)c3ccc4c(c3)NC(=O)CO4)CC1)CC2`: 794 nM and 6.31 nM.
In the same order, the values of `N#Cc1ccc2c(c1)CCN(CC[C@H]1CC[C@H](NC(=O)/C=C/c3ccccc3F)CC1)CC2` are 631 nM and 10 nM.
For `N#Cc1ccc2c(c1)CCN(CC[C@H]1CC[C@H](NC(=O)c3ccc4ccc(O)nc4c3)CC1)CC2`, the Ki is 501 nM at D(2) dopamine receptor and 10 nM on D(3) dopamine receptor.
In the same order, the values of `N#Cc1ccc2c(c1)CCN(CC[C@H]1CC[C@H](NC(=O)/C=C/c3cccc(F)c3)CC1)CC2` are 398 nM and 6.31 nM.
In the same order, the values of `N#Cc1ccc2c(c1)CCN(CC[C@H]1CC[C@H](NC(=O)/C=C/c3ccc(F)cc3)CC1)CC2` are 398 nM and 6.31 nM.
The matching figures for `N#Cc1ccc2c(c1)CCN(CC[C@H]1CC[C@H](NC(=O)c3cccc4ccccc34)CC1)CC2`: 1260 nM and 20 nM.
In the case of `N#Cc1ccc2c(c1)CCN(CC[C@H]1CC[C@H](NC(=O)c3cc4ccccc4[nH]3)CC1)CC2`, the figures for the inhibitory constant (Ki) on D(2) dopamine receptor and on D(3) dopamine receptor were 316 nM and 15.8 nM, respectively.
For the compound `CC(=O)Nc1cccc(/C=C/C(=O)N[C@H]2CC[C@H](CCN3CCc4ccc(C#N)cc4CC3)CC2)c1`, the results for the Ki on D(2) dopamine receptor and on D(3) dopamine receptor were 501 nM and 3.16 nM, respectively.

The term Ki denotes a dissociation constant, usually derived from enzyme kinetics or from competition with a known ligand. A high value points to a looser hold on the target.
